Patent US9187539B2, “Compositions having antiangiogenic activity and uses thereof” (The Johns Hopkins University, priority 2005, dated 2015)

Experiments:
[1] = system: human umbilical vein endothelial cells (HUVECs); experiment: HUVEC proliferation assay (WST-1), 2- and 4-day, 5,000 cells per well; format: cell-based
Method: The effect of the various peptides on cell proliferation was assayed, by administering the peptides to human umbilical vein endothelial cells (HUVECs) in culture. 45 peptides belonging to four distinct families of proteins including the thrombospondin-1 containing proteins, the C-X-C chemokines, collagen derived peptides and peptides from tissue inhibitors of metalloproteinases were tested. The potency of each of the peptides was tested using the proliferation assay at 2 days and 4 days following administration of the peptides and a similar assay using a different cell density at 3 days. In the four-day experiments, the cell medium was changed after the second day of incubation and the peptide was replaced at the initial concentration together with the medium. TNP-470 is an antiangiogenic compound that was used as a positive control for assessing anti-angiogenic efficacy. The activity of each polypeptide was, therefore, expressed as a percentage of TNP-470 activity, i.e., the optical density obtained experimentally is scaled such that the negative control is 0% and the positive control is 100% as explained below (FIG. 4). Each plate included a well having HUVEC cells that received 0.1 μg/ml TNP-470. For example, a peptide having the same effect on endothelial cell proliferation would have 100% of the activity of TNP-470. Note that activity could exceed 100%. In this assay, the effects of the predicted anti-angiogenic fragments on the ability of HUVECs to proliferate was characterized. […] A commonly used methodology to test for proliferation is to monitor the viability and metabolic activity of endothelial cells, in the presence of the anti-angiogenic fragments at different concentrations and various time steps. The cell proliferation reagent WST-1 was used as a substrate/assay to measure the metabolic activity of viable cells. WST-1 is a colorimetric, non-radioactive assay and can be performed in a microplate. It is suitable for measuring cell proliferation, cell viability or cytotoxicity. The assay is based on the reduction a red tetrazolium salt, WST-1, by viable, metabolically active, cells to form the yellow formazan crystals soluble in the cell medium. […] The cells are cultured described above. Once cells have reached 80% confluence they are trypsinized and resuspended in EGM-2. The cell density is estimated using a hemocytometer. All of the endothelial cells used were from passage 4 to passage 8. The proliferation assay involved two steps. During the first step the cells, approximately 5,000 cells per well for a 96-well plate, were seeded without any extracellular matrix substrate on the wells overnight (8 hours). The initial cell culture medium was removed using a multichannel pipetor and the candidate peptides were applied. A logarithmic scale of four different concentrations of 0.01 μg/ml, 0.1 μg/ml, 1 μg/ml and 10 μg/ml of each peptide was used. Each of the concentrations was tested in quadruplicate. The viability of the cells was challenged at 2 and 4 days upon the application of the peptide. As a positive control for decreased viability, 0.1 μg/ml of TNP-470 (O-(chloro-acetyl-carbamoyl) fumagillol, a synthetic analogue of fumagillin; TNP-470 was provided by NCI, was provided along with the medium, and as a negative control for normal viability, the cells were cultured without the addition of any agent. The cells were then incubated with 10 μl per well of the red WST-1 reagent for approximately 2 to 4 hours. During this incubation period, viable cells converted, in their mitochondria, the red WST-1 to the yellow formazan crystals which dissolve in the medium. The second step of the assay involved the quantification of the changes in proliferation which was performed by measuring the change in color after lysing the cells. The samples were read using the ELISA plate reader Victor3 V (Perkin Elmer) at a wavelength of […]. The amount of color produced is directly proportional to the number of viable cells. […]

[2] = system: human umbilical vein endothelial cells (HUVECs); experiment: HUVEC proliferation assay (WST-1), 3-day, 2,000 cells per well; format: cell-based; conditions: 3-day assay
Method: In addition to the 2 and 4 day proliferation experiment where 5,000 cells per well were seeded, the effects of the peptides on the proliferating ability of HUVECs were also studied using cells seeded at a density of 2,000 cells per well. This lower cell seeding density allowed the experiment to be extend for an additional day without changing the cell medium. The effects of the peptides when applied to the cells for 3 consecutive days is also reported herein. The proliferation assay again involved two steps. During the first step 2,000 cells per well for a 96-well plate were seeded without any extracellular matrix substrate on the wells overnight (8 hours). The initial cell culture medium was removed using a multichannel pipetor. To synchronize the cells, the cells were serum starved for 4 hours and the candidate peptides were applied. During serum starvation the cell culture medium was changed from a “full” medium to the “basal” medium, which contained no growth factors or serum. Serum starvation for 4 hours had no effect on the proliferation of the cells. For this assay, the logarithmic scale of four different concentrations of 0.01 μg/ml, 0.1 μg/ml, 1 μg/ml and 10 μg/ml of peptide was used. In addition, a larger concentration of 30 μg/ml peptide was also applied. Each of the concentrations was again tested in quadruplicate. After the third day of peptide application the WST-1 dye was applied for approximately 2 to 4 hours (usually after 3 hours the color saturates). The proliferation was later tested on the ELISA plate reader as described for the 2 and 4 day assay. Note that the 2- and 4-day and the 3-day protocols differed in that 5,000 cells/well versus 2,000 cells/well seeded, respectively.

[3] = system: angiogenesis (endothelial cell invasion of basement membrane extract with bFGF and VEGF); experiment: Directed in vivo angiogenesis assay (DIVAA), subcutaneously implanted angioreactors; set-up: species or system C57BL/6 mice; conditions: 200 μg/ml peptide with bFGF and VEGF in the matrix; 11 days after implantation
Method: A directed in vivo anti-angiogenesis assay (DIVAA) was used to test the anti-angiogenic efficacy of the alpha 5 fibril of collagen type 4, which had the sequence: SAPFIECHGRGTCNYYANS (SEQ ID NO: 91). […] The peptide was solubilized in buffer solution at 200 μg/ml without an organic solvent. DIVAA is a reproducible and quantitative in-vivo method of assaying angiogenesis. It involves preparation of silicon cylinders of 20 μl volume, closed on one side, filled with some type of extracellular matrix (for example Matrigel or BME-basement membrane extract) with or without premixed angiogenic factors. These angioreactors are then implanted subcutaneously in the dorsal flank of mice. Accompanied with the onset of angiogenesis, vascular endothelial cells migrate into the extracellular matrix and form vessels in the angioreactor. […]
To obtain a quantitative assessment of the angiogenic invasion, the content of the angioreactors was removed from the cylinder and the endothelial cells were stained using FITC-Lectin (FIG. 38A) Once the tubes were extracted from the mice, the inside of the angioreactors was rinsed with 300 μl of a 36 kDa, bacillus-derived neutral metalloproteinase which is commercially available as Cellsperse (Trevigen, Inc., Gaithersburg, Md.), an extracellular matrix digesting solution and the content of the reactors as well as the rinse was transferred into a microtube. […]

Row | Sequence | anti-proliferative activity in words ([1]; 2- and 4-day assay, overall) | anti-proliferative activity in words at high peptide concentration ([2]; high/highest applied concentration (30 μg/ml where stated)) | endothelial cell invasion of the extracellular matrix in angioreactors [3] | inhibition of angiogenesis in angioreactors [3] | anti-proliferative activity (maximum or stated level), scaled so that TNP-470 = 100% ([1]; 4 days of peptide application, 0.01-10 μg/ml) [%] | anti-proliferative activity, TNP-470 = 100% ([2]; 30 μg/ml peptide) [%]
1 | SAPFIECHGRGTCNYYANS [SEQ ID NO: 91, α5CIV AAC27816.1: 1626-1644] | low activity | activity increases | Fewer endothelial cells invaded the extracellular matrix | strongly inhibited angiogenesis | – | –
2 | YCNINEVCHYARRNDKSYWL [SEQ ID NO: 93, α6CIV CAI40758.1: 1526-1545] | – | – | – | – | 15 | 80
